# Experimental data taken from patent US20250134861A1, “COMPOSITIONS COMPRISING 5-METHOXY-N,N-DIMETHYLTRYPTAMINE (5-MEO-DMT) FOR USE IN TREATING MENTAL DISORDERS” (GH RESEARCH IRELAND LIMITED, priority 2019, published 2025).
# Key:
# [1] = Clinical trial of inhaled 5-MeO-DMT in healthy volunteers: 5-MeO-DMT and bufotenine plasma levels; assay type: in vivo, human; settings: all other samples (1 hour and 3 hours) after inhaled 5-MeO-DMT
# Experimental: The trial consisted of two parts: Part A, where single doses of 5-MeO-DMT dosage amounts of 2 mg, 6 mg, 12 mg and 18 mg were administered; and Part B, where an initial 5-MeO-DMT dosage amount of 6 mg was administered, and then, unless the participant had already experienced a peak psychedelic experience based on the PPEQ or the supervising physician had decided that further dose increases were inappropriate based on observed side effects, further subsequent dosage amounts of 12 mg and 18 mg were administered with about 3 hours in between each administration. […] Pharmacokinetic analysis of 5-MeO-DMT and bufotenine plasma levels was performed at 1 hour and 3 hours after drug administration in Part A, and at 3 hours after drug administration in Part B.
# [2] = biological target: 5-HT2A receptor (Homo sapiens, UniProt P28223); settings: compared with 5-MeO-DMT; cited from earlier work
# 5-HT2A receptor, sequence (P28223 whole entry): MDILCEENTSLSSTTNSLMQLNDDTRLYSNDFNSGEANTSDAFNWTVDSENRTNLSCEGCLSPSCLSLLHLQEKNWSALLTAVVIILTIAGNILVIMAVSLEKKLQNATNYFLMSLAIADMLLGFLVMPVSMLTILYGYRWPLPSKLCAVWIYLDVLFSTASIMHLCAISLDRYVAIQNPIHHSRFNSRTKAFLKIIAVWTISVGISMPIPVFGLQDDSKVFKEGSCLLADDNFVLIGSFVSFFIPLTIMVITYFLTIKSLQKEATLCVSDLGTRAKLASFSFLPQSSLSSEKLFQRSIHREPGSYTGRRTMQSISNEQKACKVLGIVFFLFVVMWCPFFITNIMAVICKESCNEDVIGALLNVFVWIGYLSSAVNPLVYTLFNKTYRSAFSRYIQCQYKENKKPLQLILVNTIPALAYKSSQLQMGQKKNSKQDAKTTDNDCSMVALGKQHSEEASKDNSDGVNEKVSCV
# [3] = system: patients with personality trait disturbance or anxiety; settings: LSD as an aid to psychotherapy; cited from earlier work
# [4] = system: patients suffering from terminal state of cancer; settings: LSD treatment; cited from earlier work
# [5] = system: patients with anxiety associated with life-threatening diseases; settings: 12 patients; two months follow-up; cited from earlier work
# [6] = system: patients with alcohol dependence; settings: therapy with LSD; cited from earlier work
# [7] = oral; cited from earlier work
# [8] = system: patients in a treatment program of alcoholism; settings: LSD together with psychotherapy vs psychotherapy alone; cited from earlier work
# [9] = system: patients with treatment-resistant depression; settings: in vivo; cited from earlier work
smiles,measurement,setting,value
CN(C)CCc1c[nH]c2ccc(O)cc12 [bufotenine],Bufotenine (5-MeO-DMT metabolite) plasma levels,[1],undetectable
same,Affinity for the 5-HT2A receptor,[2],much higher affinity than 5-MeO-DMT itself
"CCN(CC)C(=O)[C@@H]1C=C2c3cccc4[nH]cc(c34)C[C@H]2N(C)C1 [LSD, lysergic acid diethylamide]","Patients with outcome of ""much improved"" or ""improved""",[3],over 90%
same,Fraction of patients who improved in varying degrees,[4],about two-thirds
same,Anxiety measures,[5],significant effects
same,Patients changed (stop drinking or are much improved),[6],50%
same,Duration of acute psychedelic effects,[7],several hours
same,Rates of abstinence or improvement,[8],higher rates of abstinence or improvement
CN(C)CCc1c[nH]c2cccc(OP(=O)(O)O)c12 [psilocybin],Frequently reported side effects,[9],"anxiety, headache and nausea"
